Measurements published in patent US12076373B2, “Formulations for oral administration of active agents” (Entera Bio Ltd., priority 2015, dated 2024).

Legend:
[1] = Dissolution test: release of SNAC from tablet formulations in simulated gastric buffer; assay type: physicochemical; settings: tablet with 100 mg sodium bicarbonate vs tablet without, trypsin inhibitor, teriparatide, 100 ml simulated gastric buffer without pepsin, pH 2.0, 37° C., USP 23 Apparatus 2, 50 rpm
Experimental: The tablets were in a form of a homogeneous mixture.
Each tablet formulation was subjected to a dissolution test in 100 ml of simulated gastric buffer (without pepsin), pH 2.0, at 37° C., according to USP 23 Apparatus 2 (paddle) with 50 rotations per minute. The amount of released SNAC in each sample was determined chromatographically, using an HPLC apparatus with Cosmosil™ 5 C18-MS-II (4.6 ID×250 mm) column. Mobile phase consisted of 50% acetonitrile and 50% phosphoric acid solution (0.1%). Flow rate was 1 ml/minute and injection volume was 25 μl. Amount of released SNAC was calculated as a percentage of the amount of SNAC in the formulation.

[2] = Open label comparative pharmacokinetic study of oral teriparatide tablet in healthy volunteers; assay type: in vivo, human; settings: oral tablet 0.75 mg teriparatide + SNAC + SBTI, with 150 ml of 3 mg/ml sodium bicarbonate solution vs 150 ml water; ten healthy volunteers, fasted; plasma
Experimental: An open label comparative pharmacokinetic study was performed on ten healthy volunteers. On different visits, each volunteer received the same oral tablet containing 0.75 mg of teriparatide, a recombinant form of parathyroid hormone (1-34) (PTH(1-34)). In the first visit, the tablet was administered with 150 ml water, whereas in the second visit the tablet was administered with 150 ml of 3 mg/ml sodium bicarbonate aqueous solution.
The formulation was composed of teriparatide (0.75 mg), SNAC (sodium 8-N-(2-hydroxybenzoyl)aminocaprylate), soybean trypsin inhibitor (SBTI) and a small amount of magnesium stearate.
Tablets were administered in the morning after an 8-hour overnight fast. At each visit a standard meal was provided 3 hours after drug administration. […] There was a two week period between the two visits.
To determine PTH(1-34) concentrations, blood samples (4 ml each) were drawn via an indwelling catheter from the forearm vein at predetermined time points during each visit. The cannula was flushed with 1.5 ml normal saline after each sampling. In addition, to avoid sample dilution, 1 ml of blood was drawn and discarded before the next sample. […] PTH(1-34) levels were measured using an IDS-iSYS automated assay for the measurement of intact PTH(1-34) in human plasma or serum. […] Relative absorption was determined based on the AUC (area under curve) parameter.

SMILES	dissolution of SNAC in tablets (released SNAC as a percentage of the amount of SNAC in the formulation) [1]	increase in absorption of PTH(1-34) (relative absorption based on AUC) [2]
O=C(O)CCCCCCCNC(=O)c1ccccc1O [SNAC, sodium 8-N-(2-hydroxybenzoyl)aminocaprylate]	considerably enhanced	
CC[C@H](C)[C@H](NC(=O)[C@H](CCC(=O)O)NC(=O)[C@H](CO)NC(=O)[C@@H](NC(=O)[C@@H](N)CO)C(C)C)C(=O)N[C@@H](CCC(N)=O)C(=O)N[C@@H](CC(C)C)C(=O)N[C@@H](CCSC)C(=O)N[C@@H](Cc1cnc[nH]1)C(=O)N[C@@H](CC(N)=O)C(=O)N[C@@H](CC(C)C)C(=O)NCC(=O)N[C@@H](CCCCN)C(=O)N[C@@H](Cc1cnc[nH]1)C(=O)N[C@@H](CC(C)C)C(=O)N[C@@H](CC(N)=O)C(=O)N[C@@H](CO)C(=O)N[C@@H](CCSC)C(=O)N[C@@H](CCC(=O)O)C(=O)N[C@@H](CCCN=C(N)N)C(=O)N[C@H](C(=O)N[C@@H](CCC(=O)O)C(=O)N[C@@H](Cc1c[nH]c2ccccc12)C(=O)N[C@@H](CC(C)C)C(=O)N[C@@H](CCCN=C(N)N)C(=O)N[C@@H](CCCCN)C(=O)N[C@@H](CCCCN)C(=O)N[C@@H](CC(C)C)C(=O)N[C@@H](CCC(N)=O)C(=O)N[C@@H](CC(=O)O)C(=O)N[C@H](C(=O)N[C@@H](Cc1cnc[nH]1)C(=O)N[C@@H](CC(N)=O)C(=O)N[C@@H](Cc1ccccc1)C(=O)O)C(C)C)C(C)C [PTH(1-34), teriparatide]		about 35%
